# Measured values published in PMC11316643 (European journal of medicinal chemistry, 2024).
# Like-named read-outs stand apart in the source and are kept apart here.
# Key:
# human KOR = human KOR (Homo sapiens, UniProt P41145); assay: Bias analysis by operational model
# [1] = target: human kappa opioid receptor (KOR) (Homo sapiens, UniProt P41145); assay: 35S-GTPγS binding assay of KOR G protein activation in CHO-hKOR membranes; assay type: biochemical
# human kappa opioid receptor (KOR), sequence (P41145 whole entry): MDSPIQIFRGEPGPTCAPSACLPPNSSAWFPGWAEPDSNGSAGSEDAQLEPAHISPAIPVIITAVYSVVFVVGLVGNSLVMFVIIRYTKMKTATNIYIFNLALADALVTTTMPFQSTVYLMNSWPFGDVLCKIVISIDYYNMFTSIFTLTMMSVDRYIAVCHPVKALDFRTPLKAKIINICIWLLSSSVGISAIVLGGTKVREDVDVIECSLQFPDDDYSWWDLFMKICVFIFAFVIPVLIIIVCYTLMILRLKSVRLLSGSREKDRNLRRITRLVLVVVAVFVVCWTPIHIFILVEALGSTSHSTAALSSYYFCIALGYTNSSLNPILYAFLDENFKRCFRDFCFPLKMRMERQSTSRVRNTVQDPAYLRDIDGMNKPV
# human KOR, sequence (P41145 whole entry): as above
# human KOR, sequence (P32121 whole entry partner): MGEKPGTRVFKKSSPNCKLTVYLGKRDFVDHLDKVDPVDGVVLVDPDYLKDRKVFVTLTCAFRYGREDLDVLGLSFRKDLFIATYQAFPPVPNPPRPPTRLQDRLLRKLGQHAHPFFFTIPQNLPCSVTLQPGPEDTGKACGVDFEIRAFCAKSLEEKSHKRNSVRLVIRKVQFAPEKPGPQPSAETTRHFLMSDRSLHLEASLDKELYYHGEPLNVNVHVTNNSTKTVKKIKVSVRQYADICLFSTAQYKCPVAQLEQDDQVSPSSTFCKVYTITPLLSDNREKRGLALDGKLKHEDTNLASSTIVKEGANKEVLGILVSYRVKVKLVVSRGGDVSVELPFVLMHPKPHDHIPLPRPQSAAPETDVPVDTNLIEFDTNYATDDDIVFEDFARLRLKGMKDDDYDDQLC
smiles,measurement,setting,value
"Cc1ccc(CCc2nnc(-c3ccccn3)n2Cc2cccs2)cc1C(F)(F)F [2d, 2-(5-(4-Methyl-3-(trifluoromethyl)phenethyl)-4-(thiophen-2-ylmethyl)-4H-1,2,4-triazol-3-yl)pyridine]","bias (bias factor, G protein over βarrestin2)",human KOR,38
"Cc1ccc(CCc2nnc(-c3ccccn3)n2-c2ccccc2)cc1C(F)(F)F [2g, 2-(5-(4-Methyl-3-(trifluoromethyl)phenethyl)-4-phenyl-4H-1,2,4-triazol-3-yl)pyridine]",KOR agonist activity (GTPγS) in words,[1],inactive
"Cc1ccc(CCc2nnc(-c3ccccn3)n2Cc2ccncc2)cc1C(F)(F)F [2j, 2-(5-(4-Methyl-3-(trifluoromethyl)phenethyl)-4-(pyridin-4-ylmethyl)-4H-1,2,4-triazol-3-yl)pyridine]",KOR agonist activity (GTPγS) in words,[1]; SAR discussion,inactive
"Cc1ccc(CCc2nnc(-c3ccccn3)n2CC2CC2)cc1C(F)(F)F [2k, 2-(4-(Cyclopropylmethyl)-5-(4-methyl-3-(trifluoromethyl)phenethyl)-4H-1,2,4-triazol-3-yl)pyridine]",fold decrease in potency on cyclopropane substitution,[1],10 fold
"Cc1ccc(CCc2nnc(-c3ccccc3)n2Cc2cccs2)cc1C(F)(F)F [3a, 3-(4-Methyl-3-(trifluoromethyl)phenethyl)-5-phenyl-4-(thiophen-2-ylmethyl)-4H-1,2,4-triazole]",KOR agonist activity (GTPγS) in words,[1],significant loss of activity
"Cc1ccc(CCc2nnc(-c3cccnc3)n2Cc2cccs2)cc1C(F)(F)F [3b, 3-(5-(4-Methyl-3-(trifluoromethyl)phenethyl)-4-(thiophen-2-ylmethyl)-4H-1,2,4-triazol-3-yl)pyridine]",KOR agonist activity (GTPγS) in words,[1],significant loss of activity
"Cc1ccc(CCc2nnc(-c3ccncc3)n2Cc2cccs2)cc1C(F)(F)F [3c, 4-(5-(4-Methyl-3-(trifluoromethyl)phenethyl)-4-(thiophen-2-ylmethyl)-4H-1,2,4-triazol-3-yl)pyridine]",KOR agonist activity (GTPγS) in words,[1]; SAR discussion,significant loss of activity
"Brc1ccccc1CCc1nnc(-c2ccccn2)n1Cc1cccs1 [4g, 2-(5-(2-Bromophenethyl)-4-(thiophen-2-ylmethyl)-4H-1,2,4-triazol-3-yl)pyridine]",fold decrease in potency of ortho bromo vs para-bromo (4e),[1],ca. 10 fold
"c1ccc(-c2nnc(C3CCc4ccccc4C3)n2Cc2cccs2)nc1 (centres unmarked) [5a, 2-(5-(1,2,3,4-Tetrahydronaphthalen-2-yl)-4-(thiophen-2-ylmethyl)-4H-1,2,4-triazol-3-yl)pyridine]",KOR agonist activity (GTPγS) in words,[1]; SAR discussion,detrimental to activity
"C(#Cc1nnc(-c2ccccn2)n1Cc1ccco1)c1ccccc1 [5b, 2-(4-(Furan-2-ylmethyl)-5-(phenylethynyl)-4H-1,2,4-triazol-3-yl)pyridine]",KOR agonist activity (GTPγS) in words,[1]; SAR discussion,dramatic loss in potency
"C(=C/c1nnc(-c2ccccn2)n1Cc1ccco1)/c1ccccc1 [5c, (Z)-2-(4-(Furan-2-ylmethyl)-5-styryl-4H-1,2,4-triazol-3-yl)pyridine]",KOR agonist activity (GTPγS) in words,[1],dramatic loss in potency
"Cc1ccc(/C=C/c2nnc(-c3ccccn3)n2Cc2ccco2)cc1C(F)(F)F [5d, (E)-2-(4-(Furan-2-ylmethyl)-5-(4-methyl-3-(trifluoromethyl)styryl)-4H-1,2,4-triazol-3-yl)pyridine]",KOR agonist activity (GTPγS) in words,[1],dramatic loss in potency
"FC(Cc1ccccc1)c1nnc(-c2ccccn2)n1Cc1ccco1 (centres unmarked) [5g, 2-(5-(1-Fluoro-2-phenylethyl)-4-(furan-2-ylmethyl)-4H-1,2,4-triazol-3-yl)pyridine]",fold loss of potency compared to compound 4a,[1],3 fold
"c1ccc(-c2nnc(-c3ccccn3)n2Cc2cccs2)cc1 [5j, 2-(5-Phenyl-4-(thiophen-2-ylmethyl)-4H-1,2,4-triazol-3-yl)pyridine]",KOR agonist activity (GTPγS) in words,[1],loss of activity
